Assay results taken from PubChem BioAssay AID1919005 (Molecular Pharmacology Branch, DTP, NCI, 2023).
Values joined by “and” are separate entries in the source; they are usually repeats but may differ in a detail not shown here. Identical values can stand only once.

System: 855422-203-R-J1-PDC complex spheroid growth
Assay: Anticancer human tumor 855422-203-R-J1-PDC patient-derived bladder carcinoma cell line growth inhibition [AhR]
Settings: for viability, T/C: stronger effect = lower value
Source text: Multicellular complex tumor spheroid response to aryl hydrocarbon receptor antagonists in combination with a variety of drugs and investigational agents in selected tumor cell lines
The current study was undertaken to assess response to aryl hydrocarbon receptor antagonists in combination with standard-of-care drugs and investigational agents in solid tumor complex spheroid models. Complex spheroids include a stromal component modeled by human endothelial cells (HUVEC) and fibroblasts modeled by human mesenchymal stem cells (MSCs). The concentration ranges selected for each drug and investigational agent were based upon clinically achievable concentrations if the clinical Cmax of the agent was known.
Compounds. The drugs and investigational agents: BAY 2416964 (NSC825713), GNF351 (NSC835774), CH-223191 (NSC835775), CPI-455 (NSC825282), aza-TdCyd (NSC777586), decitabine (NSC127716), belinostat (NSC758774), entinostat (NSC756642), pevonedistat (NSC761192), tazemetostat (NSC777109), talazoparib (NSC765396), olaparib (NSC753686), selinexor (NSC780203), nedisertib (M3814, NSC802822), bortezomib (NSC756655), venetoclax (NSC766270), doxorubicin (NSC123127), elimusertib (BAY189344, NSC800525), ceralasertib (AZD6738, NSC777638), TAK-243 (NSC785004), alisertib (NSC759677), etoposide (NSC141540), topotecan (NSC609699), eribulin (NSC707389), gemcitabine (NSC613327), carboplatin (NSC241240), cisplatin (NSC119875), and SN-38 (NSC673596) were obtained from the National Cancer Institute (NCI) Developmental Therapeutics Program Chemical Repository (32). The FDA-approved anticancer drug set is available from the Developmental Therapeutics Program at https://dtp.cancer.gov/organization/dscb/obtaining/available plates.htm. […] The stock solutions were prepared in dimethyl sulfoxide (DMSO, Sigma-Aldrich, St. Louis, MO, cat. D2650), except for the platinum compounds which were prepared in saline (Quality Biological, Gaithersburg, MD, cat. 114-055-101), at 800-fold the tested concentration and stored at -70 degrees C prior to their use. All drugs and investigational agents were tested over a range starting from a high concentration at or near the clinical Cmax and decreasing in half-log increments. If the clinical Cmax for an agent had not been determined, the highest concentration tested was 10 microM (Table 1).
Cell Culture. All cells were maintained in an incubator at 37 degrees C and 5% CO2 with 95% humidity. The PDC lines were cultured according to standard operating procedures established by the NCI PDMR (https://pdmr.cancer.gov). Briefly, all PDCs were thawed and cultured in Matrigel-coated flasks prepared with a working solution of 1X Ham's F-12 nutrient mix, without supplementation (Invitrogen, Waltham, MA, cat. 11765054), 100 U/mL penicillin-streptomycin (Invitrogen, cat. 15140122), and 2.5% Matrigel (Corning Inc., Corning, NY, cat. 354248) for the first three passages. All PDCs were cultured in complete DMEM/F-12 media containing advanced DMEM/F-12 (Invitrogen, cat. 12634028), 4.9% defined fetal bovine serum, heat inactivated (HyClone Laboratories Inc., Logan, UT, cat. SH30070.03HI), 389 ng/mL hydrocortisone (Sigma-Aldrich, cat. H4001), 9.7 ng/mL human EGF recombinant protein (Invitrogen, cat. PHG0313), 23.4 microg/mL adenine (Sigma-Aldrich, cat. A2786), 97.3 U/mL penicillin-streptomycin (Invitrogen, cat. 15140122), 1.9 mM L-glutamine (Invitrogen, cat. 25030081), and 9.7 microM Y-27632 dihydrochloride (Tocris Bioscience, Bristol, United Kingdom, cat. 1254). The PDCs were cultured in complete DMEM/F12 media without 10 microM Y-27632 dihydrochloride for at least two passages prior to the screen. The established cell lines NCI-H1341 and […] were cultured in DMEM/F-12, HEPES (Invitrogen, cat. 11330032), 5% defined fetal bovine serum (HyClone Laboratories Inc., cat. SH30070.03), ITS premix universal culture supplement [insulin (5 microg/mL), transferrin (5 microg/mL), and selenious acid (5 ng/mL)] […]

[1] = curve of first compound, second compound 0.1 µM
[2] = curve of first compound, second compound 0.316 µM
[3] = curve of first compound, second compound 1 µM
[4] = curve of first compound, second compound 3.16 µM
[5] = curve of first compound, second compound 10 µM
[6] = second compound 0.1 µM, first compound 0.0316 µM
[7] = second compound 0.1 µM, first compound 0.1 µM
[8] = second compound 0.1 µM, first compound 0.316 µM
[9] = second compound 0.1 µM, first compound 1 µM
[10] = second compound 0.1 µM, first compound 3.16 µM
[11] = second compound 0.1 µM, first compound 10 µM
[12] = second compound 0.316 µM, first compound 0.0316 µM
[13] = second compound 0.316 µM, first compound 0.1 µM
[14] = second compound 0.316 µM, first compound 0.316 µM
[15] = second compound 0.316 µM, first compound 1 µM
[16] = second compound 0.316 µM, first compound 3.16 µM
[17] = second compound 0.316 µM, first compound 10 µM
[18] = second compound 1 µM, first compound 0.0316 µM
[19] = second compound 1 µM, first compound 0.1 µM
[20] = second compound 1 µM, first compound 0.316 µM
[21] = second compound 1 µM, first compound 1 µM
[22] = second compound 1 µM, first compound 3.16 µM
[23] = second compound 1 µM, first compound 10 µM
[24] = second compound 3.16 µM, first compound 0.0316 µM
[25] = second compound 3.16 µM, first compound 0.1 µM
[26] = second compound 3.16 µM, first compound 0.316 µM
[27] = second compound 3.16 µM, first compound 1 µM
[28] = second compound 3.16 µM, first compound 3.16 µM
[29] = second compound 3.16 µM, first compound 10 µM
[30] = second compound 10 µM, first compound 0.0316 µM
[31] = second compound 10 µM, first compound 0.1 µM
[32] = second compound 10 µM, first compound 0.316 µM
[33] = second compound 10 µM, first compound 1 µM
[34] = second compound 10 µM, first compound 3.16 µM
[35] = second compound 10 µM, first compound 10 µM
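Note: spheroids exposed to agents for seven days before readout.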
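Throughout, for viability, T/C: percent of DMSO vehicle control luminescence viability.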

Row | SMILES | IC50 [1] | IC50 [2] | IC50 [3] | IC50 [4] | IC50 [5] | viability, T/C [6] | viability, T/C [7] | viability, T/C [8] | viability, T/C [9] | viability, T/C [10] | viability, T/C [11] | viability, T/C [12] | viability, T/C [13] | viability, T/C [14] | viability, T/C [15] | viability, T/C [16] | viability, T/C [17] | viability, T/C [18] | viability, T/C [19] | viability, T/C [20] | further results
1 | Nc1ccn(C2OC(CO)C(O)C2(F)F)c(=O)n1 (configuration not stated) + Cc1ccccc1N=Nc1ccc(NC(=O)c2ccnn2C)c(C)c1 | 265 nM | 293 nM | 248 nM | 167 nM | 73.1 nM | 120% | 96.4% | 40.4% | 29.2% | 25.9% | 16.5% | 113% | 89.3% | 46.5% | 28.2% | 23.4% | 20.7% | 109% | 84.5% | 39.2% | viability, T/C [21]: 30.1%; viability, T/C [22]: 23.8%; viability, T/C [23]: 19.1%; viability, T/C [24]: 84.5%; viability, T/C [25]: 63.3%; viability, T/C [26]: 31.9%; viability, T/C [27]: 29.6%; viability, T/C [28]: 22.3%; viability, T/C [29]: 17.1%; viability, T/C [30]: 64%; viability, T/C [31]: 45.8%; viability, T/C [32]: 29.6%; viability, T/C [33]: 27.7%; viability, T/C [34]: 22.1%; viability, T/C [35]: 18%
2 | CC1COCCN1c1cc(C2(S(C)(=N)=O)CC2)nc(-c2ccnc3[nH]ccc23)n1 (configuration not stated) + CC(CO)NC(=O)c1cc(-c2ccc(Cl)cc2)nn(-c2cnn(C)c2)c1=O | > 10000 nM | > 10000 nM | > 10000 nM | > 10000 nM | > 10000 nM | 90.6% | 88.8% | 92.3% | 92.9% | 134% | 68.3% | 92.2% | 88.2% | 95.2% | 112% | 136% | 75.4% | 108% | 100% | 108% | viability, T/C [21]: 111%; viability, T/C [22]: 123%; viability, T/C [23]: 60.8%; viability, T/C [24]: 93.9%; viability, T/C [25]: 98.7%; viability, T/C [26]: 107%; viability, T/C [27]: 110%; viability, T/C [28]: 123%; viability, T/C [29]: 58.9%; viability, T/C [30]: 98.6%; viability, T/C [31]: 94.9%; viability, T/C [32]: 81%; viability, T/C [33]: 95.9%; viability, T/C [34]: 104%; viability, T/C [35]: 75.2%
3 | O=C(C=Cc1cccc(S(=O)(=O)Nc2ccccc2)c1)NO | – | – | – | – | – | – | – | – | – | – | – | – | – | – | – | – | – | – | – | – | viability, T/C (compound 0.0316 µM): 84% and 110% and 92.6%; viability, T/C (compound 0.1 µM): 84.6% and 109% and 91.1%; viability, T/C (compound 0.316 µM): 88.4% and 108% and 90%; viability, T/C (compound 1 µM): 69% and 106% and 70.5%; viability, T/C (compound 3.16 µM): 29.5% and 61% and 34.7%; viability, T/C (compound 10 µM): 0.96% and 4.09% and 0.82%; IC50 (curve of compound): 1770 nM and 3950 nM and 1950 nM
4 | Nc1ccccc1NC(=O)c1ccc(CNC(=O)OCc2cccnc2)cc1 + Cc1cncc(-c2nc(NCCc3c[nH]c4ccccc34)c3ncn(C(C)C)c3n2)c1 | 2660 nM | 2310 nM | 2010 nM | 475 nM | < 31.6 nM | 88.7% | 81.7% | 76.4% | 74.3% | 45.2% | 5.46% | 86.9% | 83.7% | 69.5% | 76.4% | 40.7% | 5.76% | 88.7% | 87.9% | 78.2% | viability, T/C [21]: 73.9%; viability, T/C [22]: 35.4%; viability, T/C [23]: 4.53%; viability, T/C [24]: 82.2%; viability, T/C [25]: 73.8%; viability, T/C [26]: 63.9%; viability, T/C [27]: 26.4%; viability, T/C [28]: 22.1%; viability, T/C [29]: 5.42%; viability, T/C [30]: 7.49%; viability, T/C [31]: 5.93%; viability, T/C [32]: 0.88%; viability, T/C [33]: 0.3%; viability, T/C [34]: 0.17%; viability, T/C [35]: 0.17%
